{"source": "patent US8105980B1", "about": "“Method of increasing the content of flavonoids and phenolic substances substances inplants” (Basf Aktiengesellschaft, priority 1999, dated 2012)", "key": {"[1]": {"system": "Apple plants cv. “Weirouge”", "assay": "Eriodictyol and luteoliflavan content in young apple leaves after treatment (HPLC)", "format": "in vivo", "conditions": "for Eriodictyol / Luteoliflavan: 250 ppm to runoff, youngest fully developed leaf", "procedure": "Apple plants cv. “Weirouge” were grown under controlled-environment conditions and treated to runoff point with 250 ppm prohexadione-calcium (formulated as BAS 125 10 W=wettable granules, content 10%). At various points in time after the treatment, the youngest fully developed leaf was harvested from each individual shoot. The freeze-dried leaves which had been ground using a pestle and mortar were extracted with methanol. Flavonoids and related compounds in the concentrated extract were analyzed by HPLC. Separation was performed on Hypersil ODS (particle size 3 μm) on a 250×4 mm column. Elution was carried out at a flow rate of 0.5 ml per minute, and mixtures of formic acid (5% in water) and methanol, increased stepwise from a ratio of 95:5 to 10:90 (v/v) were used. Phenolic acids and flavonols were detected at 280 nm. Flavan-3-ols were determined by post-column derivatization with p-dimethylaminocinnamaldehyde at 640 nm. For methodological details, see Treutter et al. (1994), Journal of Chromatography A 667, 290-297."}, "Vines cv. “Dornfelder”": {"system": "Vines cv. “Dornfelder”", "assay": "Treatment of Dornfelder vines: ripeness, acid, pigmentation and taste of harvested grapes", "format": "in vivo, grapevine", "procedure": "Vines cv. “Dornfelder” were treated twice at different points in time with the formulation BAS 125 10W, which contains prohexadione-calcium. 1000 g of prohexadione-calcium in 1000 l of spray mixture were applied per ha per treatment.\nThe 1st application was carried out at developmental stage 73 before the berries developed their color, and the 2nd application 10 days thereafter.\nUntreated control: 69° Oechsle, acid: 7.3 g/l; treated control: 67° Oechsle, acid: 7.4 g/l."}, "apple tissue cultures": {"system": "apple tissue cultures", "conditions": "cited from earlier work"}, "shoot tissue of apples": {"system": "shoot tissue of apples", "conditions": "shoot tissue of apples after exposure; cited from earlier work"}, "[2]": {"conditions": "two applications of 1000 g/ha in 1000 l spray mixture (BAS 125 10W), at harvest"}}, "data": [{"substance": "prohexadione-calcium", "values": [{"measurement": "Eriodictyol", "setting": "[1]; 12 days after treatment", "result": 17, "unit": "g/kg dry matter"}, {"measurement": "Luteoliflavan", "setting": "[1]; 12 days after treatment", "result": 0, "unit": "g/kg dry matter"}, {"measurement": "Eriodictyol", "setting": "[1]; 21 days after treatment", "result": 27, "unit": "g/kg dry matter"}, {"measurement": "Luteoliflavan", "setting": "[1]; 21 days after treatment", "result": 34, "unit": "g/kg dry matter"}, {"measurement": "eriodictyol concentration in treated leaves", "setting": "[1]; after 12 and 21 days", "result": "markedly increased"}, {"measurement": "pigmentation of treated grapes", "setting": "Vines cv. “Dornfelder”; compared with untreated grapes", "result": "less pronounced"}, {"measurement": "taste of treated grapes", "setting": "Vines cv. “Dornfelder”; compared with untreated grapes", "result": "no difference was observed"}, {"measurement": "acid of harvested grapes", "setting": "Vines cv. “Dornfelder”; [2]", "result": 7.4, "unit": "g/L"}, {"measurement": "degree of ripeness of harvested grapes", "setting": "Vines cv. “Dornfelder”; [2]", "result": 67, "unit": "° Oechsle"}, {"measurement": "content of phenolic substances", "setting": "apple tissue cultures", "result": "increased several times"}, {"measurement": "catechin and cyanidin in treated tissue", "setting": "shoot tissue of apples", "result": "not detectable in the treated tissue, or found in considerably reduced amounts only"}, {"measurement": "luteoliflavan and eriodictyol amounts", "setting": "shoot tissue of apples", "result": "relatively large amounts"}]}]}
